Results: paper PMC4848466, “Insights into the activation mechanism of class I HDAC complexes by inositol phosphates” (Nature Communications, 2016)
pKd: −log10 of the molar value.

What was measured:
Assay type in all cases: biochemical
HDAC3:SMRT = HDAC3:SMRT (Homo sapiens, UniProt O15379+Q9Y618); assay: Michaelis-Menten enzyme kinetics on Caliper EZ Reader with H4K16ac peptide; design: Full-length HDAC3, and residues 350–480 of SMRT were cloned into pcDNA3 vectors; residues 350–480 of SMRT were cloned into pcDNA3 vectors; FLAG tag with TEV protease cleavage site (cleaved yes); made in house; host or cells: HEK293F cells (co-transfection, pcDNA3); conditions: H4 12–18K16ac peptide; in the presence of the inositol phosphate
Excerpt: (§1) To explore further the differences between the two complexes we established a more physiological, real-time kinetic assay using substrates based on the tails of histones H4 and H3. The peptides tested were; H4 12–18(K16ac), H3 23–29(K27ac) and H3 6–12(K9ac). […] HDAC3:SMRT is most catalytically active against H3 23–29(K27ac) (Supplementary Fig. 7), whereas HDAC1:MTA1 is most catalytically active against H4 12–18(K16ac) (Fig. 4d). In both cases an approximate 3-fold greater kcat is observed for the preferred versus non-preferred substrate, in the absence of inositol phosphate. […] The net effect of both inositol phosphates tested was between a two and fivefold increase in catalytic efficiency (kcat/Km) (Fig. 4c,d, Supplementary Fig. 7).
(§2) Michaelis–Menten kinetics were determined using a HDAC assay on the Caliper EZ Reader II system (Caliper Life Sciences, http://www.caliperls.com). To assess the effect of inositol phosphate, 20 nM HDAC3:SMRT or 80 nM HDAC1:MTA1 were pre-mixed with InsP6 before dilution and addition of fluorescein-labelled H4K16Ac substrate. Reactions were carried out in duplicate in 30 μl reaction volumes, performed at room temperature in 50 mM Tris pH 7.5, 50 mM NaCl, 5% glycerol. Data was analysed using GraphPad Prism (version 6.0).

HDAC1:MTA1 complex = target: T1, HDAC1:MTA1 complex (Homo sapiens, UniProt Q13330+Q13547); assay: Activation of HDAC1:MTA1 deacetylase activity by inositol phosphates (BOC-Lys-AMC assay)
T1 construct: Full-length HDAC1 and residues 162–354 of MTA1 were cloned into pcDNA3 vectors; residues 162–354 of MTA1 were cloned into pcDNA3 vectors; FLAG tag with TEV protease cleavage site (cleaved yes); made in house; host or cells: HEK293F cells (co-transfection, pcDNA3)
Method: (§3) HDAC activity of the protein complex was measured using an HDAC assay with a BOC-Lys-AMC substrate. 50 nM HDAC3:SMRT or 50 nM HDAC1:MTA1 was incubated with 100 μM BOC-Lys-AMC substrate in a final volume of 50 μl buffer A (50 mM Tris pH 7.5, 50 mM NaCl, 5% Glycerol), in a black 96-well plate for 30 min at 37 °C.
(§4) To test the ability of inositol phosphates and derivatives to activate the complex, 50 nM HDAC3:SMRT (which had been stripped of its endogenous co-purified inositol phosphate) or 50 nM HDAC1:MTA1 was incubated with inositol phosphate or analogue for 30 min at 37 °C before the HDAC activity was measured. All measurements were performed in triplicate and data analysed using GraphPad Prism (version 6.0, GraphPad Software, Inc).

D99A HDAC1 mutant = target: T2, D99A HDAC1 mutant (Homo sapiens, UniProt Q13330+Q13547, D99A); assay: Deacetylase activity of D99A HDAC1 mutant (electrophoretic mobility shift assay, caliper platform); conditions: addition of InsP6
T2 construct: Full-length HDAC1 and residues 162–354 of MTA1 were cloned into pcDNA3 vectors; residues 162–354 of MTA1 were cloned into pcDNA3 vectors; FLAG tag with TEV protease cleavage site (cleaved yes); made in house
Method: Figure 5 Inhibition of HDAC1:MTA1 by a novel peptide-based inhibitor. (a) Inhibition curve of HDAC1:MTA1 by the histone H4 peptide H4K16Hx. (b)The position of H4K16Hx (pink) bound to the active site of HDAC1 (purple). The sidechain of HDAC1 residue D99 undergoes a significant rearrangement (indicated by arrow) to coordinate binding of the peptide (apo-HDAC1 shown in grey). […] HDAC assays were performed using an electrophoretic mobility shift assay on the caliper platform. Error bars indicate±s.e.m. (n=3).

HDAC1:MTA1 = target: T3, HDAC1:MTA1 (Homo sapiens, UniProt Q13330+Q13547); assay: Michaelis-Menten enzyme kinetics on Caliper EZ Reader with H4K16ac peptide; conditions: H4 12–18K16ac peptide; in the presence of the inositol phosphate
T3 construct: Full-length HDAC1 and residues 162–354 of MTA1 were cloned into pcDNA3 vectors; residues 162–354 of MTA1 were cloned into pcDNA3 vectors; FLAG tag with TEV protease cleavage site (cleaved yes); made in house; host or cells: HEK293F cells (co-transfection, pcDNA3)
Excerpt: as §1, §2

HDAC3:SMRT complex [1] = target: T4, HDAC3:SMRT complex (Homo sapiens, UniProt O15379+Q9Y618); assay: Activation of HDAC3:SMRT deacetylase activity by inositol phosphates (BOC-Lys-AMC assay)
T4 construct: Full-length HDAC3, and residues 350–480 of SMRT were cloned into pcDNA3 vectors; residues 350–480 of SMRT were cloned into pcDNA3 vectors; FLAG tag with TEV protease cleavage site (cleaved yes); made in house; host or cells: HEK293F cells (co-transfection, pcDNA3)
Method: (§5) To understand the stereochemical basis underlying the activation of HDAC3 by inositol phosphates we investigated the ability of a range of inositol phosphates and derivatives to enhance the activity of HDAC3 in deacetylase assays. To achieve this we used an assay based on the complex of HDAC3 with an extended SMRT construct which is stable in the absence of inositol phosphate.
as §3, §4

HDAC3:SMRT complex [2] = target: T5, HDAC3:SMRT complex (Homo sapiens, UniProt O15379); assay: as above; conditions: BOC-Lys-AMC assay; one-site binding fit of HDAC activity vs inositol phosphate concentration; read-out: Kdapp (apparent Kd from activation titration)
T5 construct: Full-length HDAC3, and residues 350–480 of SMRT were cloned into pcDNA3 vectors; residues 350–480 of SMRT were cloned into pcDNA3 vectors; FLAG tag with TEV protease cleavage site (cleaved yes); made in house; host or cells: HEK293F cells (co-transfection, pcDNA3)
Method: as §5, §3, §4

T1 sequence (Q13547 whole entry, the tested form may be a part): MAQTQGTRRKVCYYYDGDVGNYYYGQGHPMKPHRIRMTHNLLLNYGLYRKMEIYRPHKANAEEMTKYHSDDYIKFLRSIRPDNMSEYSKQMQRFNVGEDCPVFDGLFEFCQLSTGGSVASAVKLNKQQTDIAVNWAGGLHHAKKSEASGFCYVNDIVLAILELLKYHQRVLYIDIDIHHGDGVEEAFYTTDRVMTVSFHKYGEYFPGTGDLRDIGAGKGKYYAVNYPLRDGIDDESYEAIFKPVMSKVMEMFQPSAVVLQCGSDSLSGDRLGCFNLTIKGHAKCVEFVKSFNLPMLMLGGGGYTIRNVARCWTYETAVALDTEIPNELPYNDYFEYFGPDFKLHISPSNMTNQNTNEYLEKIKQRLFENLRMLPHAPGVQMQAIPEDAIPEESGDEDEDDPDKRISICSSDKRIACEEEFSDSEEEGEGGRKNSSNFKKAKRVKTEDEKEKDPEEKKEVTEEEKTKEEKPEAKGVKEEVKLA
T1 sequence (Q13330 162-354): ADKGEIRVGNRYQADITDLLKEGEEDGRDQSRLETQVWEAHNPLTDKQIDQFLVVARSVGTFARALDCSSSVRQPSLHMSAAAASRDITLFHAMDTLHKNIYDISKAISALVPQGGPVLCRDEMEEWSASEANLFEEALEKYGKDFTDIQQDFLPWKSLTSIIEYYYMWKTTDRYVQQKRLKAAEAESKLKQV
T4 sequence (O15379 whole entry, the tested form may be a part): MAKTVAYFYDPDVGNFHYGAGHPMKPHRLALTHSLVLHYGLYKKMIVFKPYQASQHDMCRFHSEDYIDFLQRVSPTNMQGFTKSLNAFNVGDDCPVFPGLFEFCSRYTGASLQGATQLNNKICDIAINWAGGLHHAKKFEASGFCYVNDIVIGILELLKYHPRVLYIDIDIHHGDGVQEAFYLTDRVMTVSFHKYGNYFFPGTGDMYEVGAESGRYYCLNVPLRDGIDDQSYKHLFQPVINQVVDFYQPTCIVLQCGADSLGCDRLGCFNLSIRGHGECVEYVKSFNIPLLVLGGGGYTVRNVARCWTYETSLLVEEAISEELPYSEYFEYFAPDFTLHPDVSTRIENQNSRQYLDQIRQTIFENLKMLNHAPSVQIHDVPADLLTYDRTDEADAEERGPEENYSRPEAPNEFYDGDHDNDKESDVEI
T4 sequence (Q9Y618 350-480): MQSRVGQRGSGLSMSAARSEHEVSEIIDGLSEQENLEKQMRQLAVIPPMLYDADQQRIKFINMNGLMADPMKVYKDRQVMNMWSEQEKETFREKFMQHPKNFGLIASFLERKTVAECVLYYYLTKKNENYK
T3 sequence (Q13547 whole entry, the tested form may be a part): as the sequence (Q13547 whole entry, the tested form may be a part) above
T3 sequence (Q13330 162-354): as the sequence (Q13330 162-354) above
T5 sequence (O15379 whole entry, the tested form may be a part): as the sequence (O15379 whole entry, the tested form may be a part) above
T5 sequence (Q9Y618 350-480, further chain): as the sequence (Q9Y618 350-480) above
HDAC3:SMRT, sequence (O15379 whole entry, the tested form may be a part): as the sequence (O15379 whole entry, the tested form may be a part) above
HDAC3:SMRT, sequence (Q9Y618 350-480): as the sequence (Q9Y618 350-480) above
T2 sequence (Q13547 whole entry D99A, the tested form may be a part): as the sequence (Q13547 whole entry, the tested form may be a part) above, with D99A counted along it
T2 sequence (Q13330 162-354): as the sequence (Q13330 162-354) above

kcat (HDAC3:SMRT): 2.59 s⁻¹ | activation of HDAC1:MTA1 complex (HDAC1:MTA1 complex): can be activated | pKd (HDAC1:MTA1 complex; read-out: Kdapp (apparent Kd from activation titration)): 5.40 | rescue of deacetylase activity of D99A mutant (D99A HDAC1 mutant): activity is not rescued | kcat (HDAC1:MTA1): 1.01 s⁻¹ | HDAC3 activation relative to maximal Ins(1,4,5,6)P4-stimulated activity (HDAC3:SMRT complex [1]; BOC-Lys-AMC assay, titration / maximal activation): same degree as Ins(1,4,5,6)P4 | increase in apparent affinity compared with Ins(1,4,5,6)P4 (HDAC3:SMRT complex [1]; ratio of apparent Kd values): 16 fold | pKd (HDAC3:SMRT complex [2]): 6.22
Structure (SMILES): O=P(O)(O)O[C@H]1[C@H](OP(=O)(O)O)[C@@H](OP(=O)(O)O)[C@H](OP(=O)(O)O)[C@@H](OP(=O)(O)O)[C@H]1OP(=O)(O)O [InsP6, inositol hexaphosphate]
